Publication PMC4002258 (Biochimica et biophysica acta, 2013)
Where two headings read alike, the source gives them in different places. Marks after values point to notes of the source that are not given here.

Key:
Assay type in all cases: biochemical
[1] = molecular target: T1, human recombinant core 2/4 β1,6-GlcNAc-transferase (C2GnT2) (Homo sapiens, UniProt O95395); details: for C2GnT2 activity (%): acceptor substrate 0.5 mM, 0.5 mM Galβ1–3GalNAcα-pnp set to 100%
T1 sequence (O95395 27-438): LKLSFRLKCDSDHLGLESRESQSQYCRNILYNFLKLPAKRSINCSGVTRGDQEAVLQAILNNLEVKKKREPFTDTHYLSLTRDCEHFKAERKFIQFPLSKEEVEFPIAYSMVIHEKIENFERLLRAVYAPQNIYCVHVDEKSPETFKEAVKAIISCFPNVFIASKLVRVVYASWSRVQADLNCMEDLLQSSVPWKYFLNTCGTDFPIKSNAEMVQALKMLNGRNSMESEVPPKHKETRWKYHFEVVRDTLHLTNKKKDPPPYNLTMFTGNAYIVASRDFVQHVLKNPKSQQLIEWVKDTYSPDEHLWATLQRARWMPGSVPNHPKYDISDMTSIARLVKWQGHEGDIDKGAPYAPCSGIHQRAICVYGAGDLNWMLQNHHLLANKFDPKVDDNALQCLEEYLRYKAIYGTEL

[2] = molecular target: T2, human recombinant core 2 β1,6-GlcNAc-transferase (C2GnT1) (Homo sapiens, UniProt Q02742); assay: C2GnT1 glycosyltransferase assay; details: for C2GnT1 activity (%): acceptor substrate 0.5 mM, 0.5 mM Galβ1–3GalNAcα-pnp set to 100%
T2 sequence (Q02742 33-428 limits assumed): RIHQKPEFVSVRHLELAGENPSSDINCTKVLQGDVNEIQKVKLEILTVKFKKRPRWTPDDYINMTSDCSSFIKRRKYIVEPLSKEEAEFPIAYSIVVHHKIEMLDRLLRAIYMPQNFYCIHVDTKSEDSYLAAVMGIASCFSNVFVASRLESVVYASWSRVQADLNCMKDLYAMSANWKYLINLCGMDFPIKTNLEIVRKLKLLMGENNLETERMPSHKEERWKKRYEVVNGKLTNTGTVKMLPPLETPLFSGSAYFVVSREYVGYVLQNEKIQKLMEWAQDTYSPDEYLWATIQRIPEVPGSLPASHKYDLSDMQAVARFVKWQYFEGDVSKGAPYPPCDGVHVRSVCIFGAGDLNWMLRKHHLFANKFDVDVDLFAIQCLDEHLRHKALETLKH

[3] = molecular target: human recombinant core 1 β1,3-Gal-transferase (C1GalT) (Homo sapiens, UniProt Q9NS00); assay: C1GalT glycosyltransferase assay; details: acceptor substrate 0.5 mM; 0.5 mM GalNAcα-Bn set to 100%
human recombinant core 1 β1,3-Gal-transferase (C1GalT), sequence (Q9NS00 30-363 limits assumed): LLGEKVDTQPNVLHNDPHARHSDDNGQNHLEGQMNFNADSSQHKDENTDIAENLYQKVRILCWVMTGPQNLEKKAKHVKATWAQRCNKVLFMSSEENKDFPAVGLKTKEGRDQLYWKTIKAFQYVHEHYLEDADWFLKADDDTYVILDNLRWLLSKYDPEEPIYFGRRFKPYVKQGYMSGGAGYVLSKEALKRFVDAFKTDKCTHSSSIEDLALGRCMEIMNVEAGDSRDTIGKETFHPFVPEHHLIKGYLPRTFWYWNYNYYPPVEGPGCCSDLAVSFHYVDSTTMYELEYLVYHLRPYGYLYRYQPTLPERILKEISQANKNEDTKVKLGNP

Row | Compound | C2GnT2 activity (%) [1] | C2GnT1 activity (%) [2] | also measured
1 | Ac-P-(Galβ1–3GalNAcα)TTTGIST-NH2 | <1% | 7% | 
2 | TETTSHS-(GlcNAcβ1–3GalNAcα)TPG | <1% | <1% | 
3 | CC(=O)N[C@H]1[C@@H](OP(=O)(O)OP(=O)(O)OC[C@H]2O[C@@H](n3ccc(=O)[nH]c3=O)[C@H](O)[C@@H]2O)O[C@H](CO)[C@@H](O)[C@@H]1O [UDP-GlcNAc, reference compound] |  |  | Vmax ([1]; C2GnT2, donor substrate, using 5 mM Galβ1–3GalNAcα-pnp): 1.7 µmol/h/mg; Vmax ([1]; C2GnT2, donor substrate, using 5 mM GlcNAcβ1–3GalNAcα-pnp): 0.8 µmol/h/mg; Vmax ([2]; C2GnT1, donor substrate, using 5 mM Galβ1–3GalNAcα-pnp): 0.1 µmol/h/mg
4 | AHGVT-(Galβ1–3GalNAcα)SAPDTRPAPGSTAP- (Galβ1–3GalNAcα)TA | <1% | 18% | 
5 | CC(=O)N[C@H]1[C@@H](OCc2ccccc2)O[C@H](CO)[C@H](O)[C@@H]1O[C@@H]1O[C@H](CO)[C@H](O)C[C@H]1O [3-Deoxy-Galβ1–3GalNAcα-Bn] | 52% | 90% | 
6 | TE-(GalNAcα)TTSHSTPG |  |  | C1GalT activity (%) [3]: 373%
7 | T-(GlcNAcβ1–3GalNAcα)TTVTPTPTG | <1% | <1% | 
8 | AHGVT-(Galβ1–3GalNAcα)SAPDTRPAPGS- (Galβ1–3GalNAcα)SAPPA | <1% | 9% | 
9 | TETTSHS-(Galβ1–3GalNAcα)TPG | 7% | 70% | 
10 | Ac-PTT-(Galβ1–3GalNAcα)TGIST-NH2 | <1% | 36% | 
11 | T-(Galβ1–3GalNAcα)TTVTPTPTG | <1% | 11% | 
12 | T-(GalNAcα)TTVTPTPTG |  |  | C1GalT activity (%) [3]: 231%
13 | CC(=O)N[C@H]1[C@@H](Oc2ccc([N+](=O)[O-])cc2)O[C@H](CO)[C@H](O)[C@@H]1O[C@@H]1O[C@H](CO)[C@H](O)[C@H](O)[C@H]1O [Galβ1–3GalNAcα-pnp, reference compound] | 100 ^b % | 100 ^a % | Vmax ([1]; C2GnT2, acceptor substrate): 1.5 µmol/h/mg
14 | TET-(GalNAcα)TSHSTPG |  |  | C1GalT activity (%) [3]: 210%
15 | Ac-GT-(Galβ1–3GalNAcα)TTPIST-NH2 | 5% | 13% | 
16 | CC(=O)N[C@H]1[C@@H](Oc2ccccc2[N+](=O)[O-])O[C@H](CO)[C@H](O)[C@@H]1O[C@@H]1O[C@H](CO)[C@H](O)[C@H](O)[C@H]1O [Galβ1–3GalNAcα-onp] | 100% | 79% | 
17 | CC(=O)N[C@H]1[C@H](O[C@H]2[C@@H](O)[C@@H](CO)O[C@H](Oc3ccc([N+](=O)[O-])cc3)[C@@H]2NC(C)=O)O[C@H](CO)[C@@H](O)[C@@H]1O [GlcNAcβ1–3GalNAcα-pnp, reference compound] | 32% | <1% | Vmax ([1]; C2GnT2, acceptor substrate): 1.0 µmol/h/mg
18 | Ac-P-(Galβ1–3GalNAcβ)TTTPIST-NH2 | 32% | 72% | 
19 | CC(=O)N[C@H]1[C@@H](OCc2ccccc2)O[C@H](CO)[C@H](O)[C@@H]1O[C@@H]1O[C@H](C)[C@H](O)[C@H](O)[C@H]1O [6-Deoxy-Galβ1–3GalNAcαBn] | <1% | <1% | 
20 | TE-(GlcNAcβ1–3GalNAcα)TTSHSTPG | <1% | <1% | 
21 | AHGVT-(Galβ1–3GalNAcα)SAPDTRPAPGSTAPTA | <1% | 9% | 
22 | AHGVT-(Galβ1–3GalNAcα)SAPDTRPAPGSTAPNA | <1% | 9% | 
23 | CO[C@H]1[C@@H](O)[C@@H](CO)O[C@@H](O[C@H]2[C@@H](O)[C@@H](CO)O[C@H](OCc3ccccc3)[C@@H]2NC(C)=O)[C@@H]1O [3-O-Methyl-Galβ1–3GalNAcα-Bn] | 41% | 104% | 
24 | Ac-G-(Galβ1–3GalNAcα)TTTPIST-NH2 | 8% | 12% | 
25 | TET-(Galβ1–3GalNAcα)TSHSTPG | <1% | 27% | 

Now from value to compound, other results behind:

Row | C2GnT2 activity (%) [1] | C2GnT1 activity (%) [2] | Compound | also measured
26 | <1% | 92% | (Galβ1–3GalNAcα)TAGV | 
27 | <1% | <1% | CO[C@H]1O[C@H](CO)[C@H](O)[C@H](O[C@@H]2O[C@H](CO)[C@H](O)[C@H](O)[C@H]2O[C@@H]2O[C@@H](C)[C@@H](O)[C@@H](O)[C@@H]2O)[C@H]1NC(C)=O [Fucα1–2Galβ1–3GalNAcα-methyl] | 
28 | 15% | 43% | Ac-PT-(Galβ1–3GalNAcβ)TTPIST-NH2 | 
29 | 27% | <1% | C=CCO[C@H]1O[C@H](CO)[C@H](O)[C@H](O[C@@H]2O[C@H](CO)[C@@H](O)[C@H](O)[C@H]2NC(C)=O)[C@H]1NC(C)=O [GlcNAcβ1–3GalNAcα-allyl] | 
30 | <1% | <1% | CO[C@@H]1O[C@H](CO)[C@H](O)[C@H](O[C@@H]2O[C@H](CO)[C@@H](O)[C@H](O)[C@H]2NC(C)=O)[C@H]1O [GlcNAcβ1–3-Galβ-methyl] | 
31 | 6% | 49% | Ac-PT-(Galβ1–3GalNAcα)TTGIST-NH2 | 
32 | <1% | <1% | CC(=O)N[C@H]1[C@@H](OCc2ccccc2)O[C@H](CO)[C@H](O)[C@@H]1O[C@@H]1O[C@H](CO)[C@H](O)[C@H](O[C@@H]2O[C@H](CO)[C@@H](O)[C@H](O[C@@H]3O[C@H](CO)[C@H](O)[C@H](O)[C@H]3O)[C@H]2NC(C)=O)[C@H]1O [Galβ1–3GlcNAcβ1–3Galβ1–3GalNAcα-Bn] | 
33 | <1% | <1% | TET-(GlcNAcβ1–3GalNAcα)TSHSTPG | 
34 | <1% | 9% | AHGVT-(Galβ1–3GalNAcα)SAPESRPAPGSTAPNA | 
35 | <1% | 14% | Ac-GTT-(Galβ1–3GalNAcα)TPIST-NH2 | 
36 | <1% | <1% | CC(=O)N[C@H]1[C@@H](OCc2ccccc2)O[C@H](CO)[C@H](O)[C@@H]1O[C@@H]1O[C@H](CO)C[C@H](O)[C@H]1O [4-Deoxy-Galβ1–3GalNAcα-Bn] | 
37 | <1% | <1% | CC(=O)N[C@H]1[C@@H](OCc2ccccc2)O[C@H](CO)[C@H](O)[C@@H]1O[C@@H]1O[C@H](CO)[C@H](F)[C@H](O)[C@H]1O [4-F-4-Deoxy-Galβ1–3GalNAcα-Bn] | 
38 | <1% | 12% | TT-(Galβ1–3GalNAcα)TVTP-(Galβ1–3GalNAcα)TPTG | 
39 | <1% | <1% | COC[C@H]1O[C@H](OCc2ccccc2)[C@H](NC(C)=O)[C@@H](O[C@@H]2O[C@H](CO)[C@H](O)[C@H](O)[C@H]2O)[C@H]1O [Galβ1–3(6-O-methyl)GalNAcα-Bn] | 
40 | 86% | 135% | C=C(C)C1CC=C(CO[C@H]2O[C@H](CO)[C@H](O)[C@H](O[C@@H]3O[C@H](CO)[C@H](O)[C@H](O)[C@H]3O)[C@H]2NC(C)=O)CC1 (stereo partly shown) [Galβ1–3GalNAcα-perillyl] | 
41 | <1% | 11% | AHGVT-(Galβ1–3GalNAcα)SAPETRPAPGSTAPTA | 
42 | <1% | <1% | CC(=O)N[C@H]1[C@@H](OCc2ccccc2)O[C@H](CO)C[C@@H]1O[C@@H]1O[C@H](CO)[C@H](O)[C@H](O)[C@H]1O [Galβ1–3(4-deoxy)GalNAcα-Bn] | 
43 |  | <1% | CC(=O)N[C@H]1[C@@H](OCc2ccccc2)O[C@H](CO)[C@@H](O)[C@@H]1O[C@@H]1O[C@H](CO)[C@H](O)[C@H](O)[C@H]1O [Galβ1–3GlcNAcα-Bn] | 
44 | 35% | 64% | CC(=O)N[C@H]1[C@@H](OCc2ccccc2)O[C@H](CO)[C@H](O)[C@@H]1O[C@@H]1O[C@H](CO)[C@H](O)[C@H](O)[C@H]1O [Galβ1–3GalNAcα-Bn] | 
45 | <1% | <1% | CC(=O)N[C@H]1[C@H](OC[C@H]2O[C@H](OCc3ccccc3)[C@H](NC(C)=O)[C@@H](O[C@@H]3O[C@H](CO)[C@@H](O)[C@H](O)[C@H]3NC(C)=O)[C@H]2O)O[C@H](CO)[C@@H](O)[C@@H]1O [GlcNAcβ1–6(GlcNAcβ1–3)GalNAcα-Bn] | 
46 | <1% | 13% | TT-(Galβ1–3GalNAcα)TVTPTPTG | 
